Results on three compounds are retold here after US6287794A, “Factor Vlla inhibitors” (Aventis Pharma Deutschland GmbH, priority 1998, dated 2001).

Molecules are shown by their SMILES. Starred links: 1 amine or outer side, 2 acyl side, 3 side chain; linkers in the order of their positions; H or OH if unused. Non-standard residues stand in square brackets, D forms with d. Residues, ends and D or L forms follow the SMILES beside them. *: point of attachment. Phe(4-guanidino) = N=C(N)Nc1ccc(C[C@H](N)C(=O)O)cc1; Phe(4-amidino) = N=C(N)c1ccc(C[C@H](N)C(=O)O)cc1; Cha = N[C@@H](CC1CCCCC1)C(=O)O; CO = O=C([*:1])[*:2]; Alloc = C=CCOC(=O)*; NHAllyl = C=CCN*

This assay deals with T1, human factor VIIa and TF (Homo sapiens, UniProt P08709).
T1 construct: human factor VIIa and TF
T1 sequence (P08709 213-466 limits assumed): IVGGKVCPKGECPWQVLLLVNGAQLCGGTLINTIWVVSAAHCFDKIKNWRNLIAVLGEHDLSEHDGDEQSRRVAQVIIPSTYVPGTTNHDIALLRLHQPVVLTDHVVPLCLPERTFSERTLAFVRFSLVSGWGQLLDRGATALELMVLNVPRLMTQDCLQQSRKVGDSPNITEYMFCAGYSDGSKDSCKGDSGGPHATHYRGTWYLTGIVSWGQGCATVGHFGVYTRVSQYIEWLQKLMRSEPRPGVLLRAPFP
T1 sequence (P08709 61-212 limits assumed): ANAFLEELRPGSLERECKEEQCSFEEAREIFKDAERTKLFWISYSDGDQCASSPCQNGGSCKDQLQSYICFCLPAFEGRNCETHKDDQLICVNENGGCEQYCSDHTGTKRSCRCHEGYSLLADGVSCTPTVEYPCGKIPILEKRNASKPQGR
T1 sequence (P13726 33-295 partner): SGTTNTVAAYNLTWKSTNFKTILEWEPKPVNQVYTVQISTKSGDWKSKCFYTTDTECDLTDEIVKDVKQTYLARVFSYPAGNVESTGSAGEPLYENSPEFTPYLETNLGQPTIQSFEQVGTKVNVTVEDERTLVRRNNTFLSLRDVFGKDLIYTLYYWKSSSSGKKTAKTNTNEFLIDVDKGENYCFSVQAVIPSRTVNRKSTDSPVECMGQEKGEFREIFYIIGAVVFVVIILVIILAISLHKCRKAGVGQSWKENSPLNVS
Nature of the assay: Determination of Ki for FVIIa inhibition (chromogenic assay, substrate S-2288). To be noted: human factor VIIa 5 nM and TF 10 nM, S-2288 500 μM, 25° C., 15 minute preincubation, pH 8.15; read-out: Factor VIIa inhibitory activities Ki. The assay is classed as biochemical. On the procedure:
The inhibitory activity (Ki) of each compound towards […] activity was determined using a chromogenic assay essentially as described previously. J. A. Ostrem, F. Al-Obeidi, P. Safar, A. Safarova, S. K. Stringer, M. Patek, M. T. Cross, J. Spoonamore, J. C. LoCascio, P. Kasireddy, D. S. Thorpe, N. Sepetov, M. Lebi, P. Wildgoose, P. Strop, "Discovery of a novel, potent, and specific family of factor Xa inhibitors via combinatorial chemistry". Biochemistry 37 (1998) 1053-1059. Kinetic assays were conducted at 25° C. in half-area microtiter plates (Costar Corp., Cambridge, Mass.) using a kinetic plate reader (Molecular Devices Spectramax 250). A typical assay consisted of 25 μl of human factor VIIa and TF (5 nM and 10 nM, respective final concentration) combined with 40 μl of inhibitor dilutions in 10% DMSO/TBS-PEG buffer (50 mM Tris, 15 mM NaCl, 5 mM CaCl2; 0.05% PEG 8k, pH 8.15). Following a 15 minute preincubation period, the assay was initiated by the addition of 35 μl of the chromogenic substrate S-2288 (D-Ile-Pro-Arg-pNA, Pharmacia Hepar Inc, 500 μM final concentration.). The apparent inhibition constants were calculated from the slope of the progress curves during the linear part of the time course, typically between 1 and 5 min following addition of substrate to the assay. The true Ki was subsequently determined for each compound by correcting for substrate concentration (S) and the Km using the formula Ki=Ki app/(1+(S)/Km). I. H. Segal, Enzyme Kinetics, pp 100-125 (John Wiley & Sons, N.Y., 1975).
As usually defined, the Ki is a dissociation constant, usually derived from enzyme kinetics or from competition with a known ligand. Regarding `C=CCOC(=O)N[C@@H](Cc1ccc(C(=N)N)cc1)C(=O)N[C@@H](CCC(=O)O)C(=O)N[C@@H](Cc1ccc(NC(=N)N)cc1)C(=O)N[C@@H](CC1CCCCC1)C(N)=O` [Alloc-pAph-Glu-Phe(4-guanidino)-Cha-NH2] (Alloc-[Phe(4-amidino)]E[Phe(4-guanidino)][Cha]-NH2), the Ki was found to be 120 nM.

For `C=CCOC(=O)N[C@@H](Cc1ccc(C(=N)N)cc1)C(=O)N[C@@H](CCC(=O)O)C(=O)N[C@H](C(=O)NCCC(c1ccccc1)c1ccccc1)[C@@H](C)OCc1ccccc1` [Alloc-pAph-Glu-Thr(Bzl)-NH--CH2 --CH2 --CH(Ph)2], the Ki worked out at 170 nM.

Take `C=CCNC(=O)N[C@@H](Cc1ccc(C(=N)N)cc1)C(=O)N[C@@H](CCC(=O)O)C(=O)N[C@@H](CCCNC(=N)N)C(=O)N[C@@H](CC1CCCCC1)C(N)=O` [allyl-NH--C(O)-pAph-Glu-Arg-Cha-NH2] ({NHAllyl-CO}-[Phe(4-amidino)]ER[Cha]-NH2): the Ki is 42 nM.
